Source: ChEMBL document CHEMBL1128761, “Benzothiazolylthio carbapenems: potent anti-MRSA agents” (Bioorg Med Chem Lett, 1995)
Values after ≈ are worked out from the molar mass of the structure shown.

How the values were obtained:
[1] = system: Staphylococcus aureus; assay: Inhibitory activity against methicillin-resistant staphylococcus aureus(MRSA); format: functional
[2] = target: T1, Dipeptidase 1 (Sus scrofa) (UniProt P22412); assay: (§1) Susceptibility to DHP-I (swine kidney enzyme); format: tissue-based
T1 sequence (whole entry): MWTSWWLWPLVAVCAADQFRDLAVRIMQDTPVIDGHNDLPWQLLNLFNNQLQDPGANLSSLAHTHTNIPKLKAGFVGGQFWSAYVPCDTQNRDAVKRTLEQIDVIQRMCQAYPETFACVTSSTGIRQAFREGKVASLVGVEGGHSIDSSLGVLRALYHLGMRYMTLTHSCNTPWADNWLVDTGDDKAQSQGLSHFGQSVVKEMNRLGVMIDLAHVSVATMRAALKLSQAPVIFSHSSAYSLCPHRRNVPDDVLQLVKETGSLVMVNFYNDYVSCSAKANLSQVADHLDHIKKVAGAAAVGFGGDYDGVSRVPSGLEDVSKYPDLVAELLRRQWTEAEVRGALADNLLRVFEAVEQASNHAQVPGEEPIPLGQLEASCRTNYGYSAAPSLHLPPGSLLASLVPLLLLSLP

[3] = system: Staphylococcus aureus; assay: Inhibitory activity against methicillin-sensitive staphylococcus aureus(MSSA); format: functional
[4] = system: Bacteria; assay: The gram-negative activity is derived from eleven strains selected from seven enteric genera; format: functional; settings: Bacteria; read-out: MIC
[5] = target: T2, MecA (Staphylococcus aureus, UniProt Q7DHH4); assay: Binding affinity towards Penicillin-binding protein 2a from homogeneous MRSA COL strain using [3H]-radioligand
T2 sequence (Q7DHH4 whole entry): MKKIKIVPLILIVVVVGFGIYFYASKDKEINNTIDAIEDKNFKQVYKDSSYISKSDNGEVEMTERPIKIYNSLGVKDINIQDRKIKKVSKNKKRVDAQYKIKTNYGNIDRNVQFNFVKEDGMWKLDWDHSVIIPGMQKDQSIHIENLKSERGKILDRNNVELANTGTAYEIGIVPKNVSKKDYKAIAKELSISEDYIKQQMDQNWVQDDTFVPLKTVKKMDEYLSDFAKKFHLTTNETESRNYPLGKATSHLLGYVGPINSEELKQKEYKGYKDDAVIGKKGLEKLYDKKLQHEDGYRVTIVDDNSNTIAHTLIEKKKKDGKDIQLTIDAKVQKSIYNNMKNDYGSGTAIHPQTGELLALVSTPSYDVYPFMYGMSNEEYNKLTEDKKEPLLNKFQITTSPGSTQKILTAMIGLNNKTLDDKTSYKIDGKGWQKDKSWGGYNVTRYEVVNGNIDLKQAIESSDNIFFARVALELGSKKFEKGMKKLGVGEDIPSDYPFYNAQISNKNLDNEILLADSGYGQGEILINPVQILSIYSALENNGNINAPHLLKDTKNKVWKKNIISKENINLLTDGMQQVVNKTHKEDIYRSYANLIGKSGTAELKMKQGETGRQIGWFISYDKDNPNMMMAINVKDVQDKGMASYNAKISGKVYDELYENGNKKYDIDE

[6] = system: Enterococcus; assay: Inhibitory activity against enterococcus evaluated by computational method; format: functional
[7] = organism: Sus scrofa; assay: as §1; format: tissue-based

Compound | MIC [1] [µg/mL] | Susceptibility [2] | MIC [3] [µg/mL] | MIC [4] [µg/mL] | IC50 [5] [µM] | MIC [6] [µg/mL] | Susceptibility [7]
C[C@@H](O)[C@H]1C(=O)N2C(C(=O)[O-])=C(Sc3ncc4ccccc4n3)[C@H](C)[C@H]12.[Na+] | 4 | 0.3 | 0.02 | 15 | 30.2 | 8 | 
C[C@@H](O)[C@H]1C(=O)N2C(C(=O)[O-])=C(Sc3nc(-c4ccccc4)cs3)C[C@H]12.[Na+] | 11.3 | 3.6 | 0.03 | 14 |  | 2.1 | 
C[C@@H](O)[C@H]1C(=O)N2C(C(=O)[O-])=C(Sc3nc4cc(Cl)ccc4s3)C[C@H]12.[Na+] | 1.8 | 1.2 | 0.02 | 3.8 | 3.82 | 0.7 | 
CCOc1ccc2nc(SC3=C(C(=O)[O-])N4C(=O)[C@H]([C@@H](C)O)[C@H]4[C@H]3C)sc2c1.[Na+] | 4 | 0.3 | 0.1 | 31.6 | 10.6 | 6 | 
C[C@@H](O)[C@H]1C(=O)N2C(C(=O)[O-])=C(Sc3nc4ccc(Cl)cc4s3)[C@H](C)[C@H]12.[Na+] | 2.3 |  | 0.1 | 17.6 | 2.08 | 4 | 
C[C@@H](O)[C@H]1C(=O)N2C(C(=O)[O-])=C(Sc3nccs3)[C@H](C)[C@H]12.[Na+] | 18.2 | 0.4 | 0.17 | 2.5 | 33.6 | 7.1 | 
C[C@@H](O)[C@H]1C(=O)N2C(C(=O)[O-])=C(Sc3nc(-c4ccccc4)cs3)[C@H](C)[C@H]12.[Na+] | 1.9 | 0.4 | 0.05 | 6.6 | 23.8 | 2.6 | 
C[C@@H](O)[C@H]1C(=O)N2C(C(=O)[O-])=C(Sc3nc4cc(CO)ccc4s3)[C@H](C)[C@H]12.[Na+] | 1 | 0.3 | 0.07 | 8 | 2.8 | 3.8 | 
C[C@@H](O)[C@H]1C(=O)N2C(C(=O)[O-])=C(Sc3nc4c(C[n+]5ccn(C)c5)csc4s3)C[C@H]12 | 1 (≈ 2.16 µM) |  | 0.02 (≈ 0.0432 µM) | 5.5 (≈ 11.9 µM) | 0.649 | 2 (≈ 4.32 µM) | 0.2
C[C@@H](O)[C@H]1C(=O)N2C(C(=O)[O-])=C(Sc3nc4ccc(N)cc4s3)[C@H](C)[C@H]12.[Na+] | 9 |  | 0.09 | 18.3 | 40.6 | 5.9 | 
C[C@@H](O)[C@H]1C(=O)N2C(C(=O)[O-])=C(Sc3nc4ccc([N+](=O)[O-])cc4s3)[C@H](C)[C@H]12.[Na+] | 1.1 | 0.2 | 0.05 | 22.4 | 1.35 | 4.9 | 
COC(=O)c1cc2sc(SC3=C(C(=O)[O-])N4C(=O)[C@H]([C@@H](C)O)[C@H]4[C@H]3C)nc2o1.[Na+] | 4 |  | 0.02 | 12.4 | 3.36 | 4 | 
C[C@@H](O)[C@H]1C(=O)N2C(C(=O)[O-])=C(Sc3nc4ccccc4o3)[C@H](C)[C@H]12.[Na+] | 12.1 |  | 0.23 | 27.8 | 112 | 8.9 | 
C[C@@H](O)[C@H]1C(=O)N2C(C(=O)[O-])=C(Sc3ccc4ccccc4n3)[C@H](C)[C@H]12.[Na+] | 6.3 |  | 0.05 | 10.1 | 71.4 | 4.9 | 
C[C@@H](O)[C@H]1C(=O)N2C(C(=O)[O-])=C(Sc3nc4ccc(C#N)cc4s3)[C@H](C)[C@H]12.[Na+] | 0.9 | 0.1 | 0.04 | 8.8 | 3.78 | 4.5 | 
C[C@@H](O)[C@H]1C(=O)N2C(C(=O)[O-])=C(Sc3ncc(-c4ccccc4)s3)[C@H](C)[C@H]12.[Na+] | 32 | 0.5 | 0.03 | 16 | 236 | 8 | 
C[C@@H](O)[C@H]1C(=O)N2C(C(=O)[O-])=C(Sc3nc4ccccc4s3)C[C@H]12.[Na+] | 1.9 | 1.7 | 0.07 | 3.7 | 8.06 | 1.7 | 
C[C@@H](O)[C@H]1C(=O)N2C(C(=O)[O-])=C(Sc3cc4ccccc4s3)[C@H](C)[C@H]12.[Na+] | 3.9 | 0.4 | 0.04 | 9.8 | 41.5 | 5.7 | 
COC(=O)c1csc2sc(SC3=C(C(=O)[O-])N4C(=O)[C@H]([C@@H](C)O)[C@H]4[C@H]3C)nc12.[Na+] | 2 | 0.3 | 0.04 | 21.9 | 2.59 | 4 | 
C[C@@H](O)[C@H]1C(=O)N2C(C(=O)O)=C(SCCN=CN)C[C@H]12 [IMIPENEM ANHYDROUS] |  |  |  |  | 428 |  | 
C[C@@H](O)[C@H]1C(=O)N2C(C(=O)[O-])=C(Sc3nc4cc(Cl)ccc4s3)[C@H](C)[C@H]12.[Na+] | 0.8 | 0.2 | 0.02 | 4.8 | 6.24 | 2.7 | 
C[C@@H](O)[C@H]1C(=O)N2C(C(=O)[O-])=C(Sc3nc4c(CO)csc4s3)[C@H](C)[C@H]12.[Na+] | 2 | 0.5 | 0.02 | 9.7 | 2.76 | 4 | 
C[C@@H](O)[C@H]1C(=O)N2C(C(=O)[O-])=C(Sc3nc4cc(C(F)(F)F)ccc4s3)[C@H](C)[C@H]12.[Na+] | 1.2 |  | 0.08 | 9.9 | 1.93 | 2.9 | 
